This test deals with T1, His-hSHIP1 enzyme (Homo sapiens, UniProt Q92835).
T1 sequence (Q92835 1-1189): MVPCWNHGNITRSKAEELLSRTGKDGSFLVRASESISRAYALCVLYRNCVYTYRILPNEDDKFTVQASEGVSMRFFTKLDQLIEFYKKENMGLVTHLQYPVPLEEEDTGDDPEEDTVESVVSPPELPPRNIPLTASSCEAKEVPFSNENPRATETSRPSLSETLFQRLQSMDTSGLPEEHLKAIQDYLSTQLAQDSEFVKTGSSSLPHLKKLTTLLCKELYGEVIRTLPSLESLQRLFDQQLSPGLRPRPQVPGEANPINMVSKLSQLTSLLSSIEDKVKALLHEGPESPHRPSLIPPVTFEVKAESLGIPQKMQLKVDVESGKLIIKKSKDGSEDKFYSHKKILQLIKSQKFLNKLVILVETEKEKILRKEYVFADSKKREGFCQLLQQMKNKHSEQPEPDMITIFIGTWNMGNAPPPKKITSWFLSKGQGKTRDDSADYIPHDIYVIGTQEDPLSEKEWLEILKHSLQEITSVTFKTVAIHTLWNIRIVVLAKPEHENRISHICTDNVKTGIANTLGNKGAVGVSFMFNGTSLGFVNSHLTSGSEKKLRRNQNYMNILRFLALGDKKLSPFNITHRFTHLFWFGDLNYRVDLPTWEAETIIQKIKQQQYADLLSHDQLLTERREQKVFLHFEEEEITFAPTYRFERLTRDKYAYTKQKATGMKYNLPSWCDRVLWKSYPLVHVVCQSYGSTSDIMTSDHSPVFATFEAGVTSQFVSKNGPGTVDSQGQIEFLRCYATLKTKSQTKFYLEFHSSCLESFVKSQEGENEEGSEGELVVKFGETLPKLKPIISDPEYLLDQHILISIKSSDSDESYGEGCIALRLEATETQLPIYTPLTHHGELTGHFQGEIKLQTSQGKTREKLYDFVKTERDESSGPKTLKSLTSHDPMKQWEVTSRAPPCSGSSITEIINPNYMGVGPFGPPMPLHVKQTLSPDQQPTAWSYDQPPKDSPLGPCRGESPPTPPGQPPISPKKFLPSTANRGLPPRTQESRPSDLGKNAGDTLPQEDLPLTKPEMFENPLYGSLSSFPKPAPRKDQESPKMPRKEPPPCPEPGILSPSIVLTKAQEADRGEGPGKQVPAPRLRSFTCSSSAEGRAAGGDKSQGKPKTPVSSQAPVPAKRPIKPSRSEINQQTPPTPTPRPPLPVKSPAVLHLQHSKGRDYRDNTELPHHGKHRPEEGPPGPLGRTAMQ
The experiment in a line: His-hSHIP1 phosphatase activity assay (IP4 substrate, Biomol Green). It is filed as biochemical. The following applies: percentage increase relative to background; concentrations ≦300 μM. As for the experimental part: Test compounds were dissolved in 95% ethanol to form stock solutions. Before screening, the stock solutions were diluted with Phosphatase Assay Buffer (20 mM Tris-HCL, 10 mM MgCl2 pH 7.5, 0.02% Tween 20) to form working assay solutions that contained 10% ethanol. The assay was carried out on 96-well microtiter plates using a modified procedure of that reported by Ong et al., Blood 110, 1942-1949, 2007 and Yang et al., Org Lett 7, 1073-1076, 2005, both of which references are incorporated herein by reference in their entirety.
Each reaction contained 5 μL of His-hSHIP1 enzyme (15-20 ng), 10 μL of the substrate, 1,3,4,5-inositol tetrakisphosphate (IP4; 50 μM final), 5 μL of Phosphatase Assay Buffer, and 5 μL of test compound at various concentrations in 10% ethanol (0-300 μM final). Control blanks were also prepared by replacing His-hSHIP1 enzyme, IP4, or test compounds with Phosphatase Assay Buffer. After adding the reaction components in a 96-well microtiter plate on ice, the reaction was mixed by briefly shaking the plate vigorously. The reaction was then incubated at 37° C. for 15 min with gentle shaking followed by addition of 100 μL of Biomol Green Reagent (BIOMOL, PA, USA) to terminate the reaction. The free phosphate released from IP4 by His-hSHIP1 bound to the Biomol Green Reagent, turning the solution green in colour. After incubating the mixture for 20 min at room temperature for colour development, the absorbance was read with a SpectraMax Plus 96-well plate reader (Molecular Devices, Sunnyvale, Calif., USA) at a wavelength of 650 nm.
Percent (%) activation in Table 2 is expressed as a percentage increase relative to background. Scoring is expressed as follows: + (<50%); ++ (≧50% but <65%); +++ (≧65%).

Structures are written as SMILES.

The text below walks through data of patent publication US8101605B2, “SHIP1 modulators and methods related thereto” (Aquinox Pharmaceuticals Inc., priority 2009, dated 2012).

As to `COc1cc(C)c2c(c1)OC[C@@H]1[C@@]3(C)CCCC(C)(C)[C@@H]3CC[C@@]21C` [Compound No. 5, (1R,10R,11S,16S)-5-methoxy-1,3,11,15,15-pentamethyl-8-oxatetracyclo[8.8.0.0^2,7.0^11,16]octadeca-2,4,6-triene], the “Scoring: percent (%) activation of His-hSHIP1 enzyme” value (shortened to “Scoring: percent (%) activation”) is listed as “++ (≧50% but <65%)”.
To `COc1cc(C)cc2c1[C@]1(C)CC[C@H]3C(C)(C)CCC[C@]3(C)[C@H]1CS2` [Compound No. 14, (1R,10R,11S,16S)-3-methoxy-1,5,11,15,15-pentamethyl-8-thiatetracyclo[8.8.0.0^2,7.0^11,16]octadeca-2,4,6-triene] belongs “+ (<50%)”; to `Cc1cc(O)c2c(c1)SC[C@@H]1[C@@]3(C)CCCC(C)(C)[C@@H]3CC[C@@]21C` [Compound No. 15, (1R,10R,11S,16S)-1,5,11,15,15-pentamethyl-8-thiatetracyclo[8.8.0.0^2,7.0^11,16]octadeca-2,4,6-trien-3-ol], “+++ (≧65%)”.
Consider `Cc1cc(O)c2c(c1)S(=O)(=O)C[C@@H]1[C@@]3(C)CCCC(C)(C)[C@@H]3CC[C@@]21C` [Compound No. 16, (1R,10R,11S,16S)-3-hydroxy-1,5,11,15,15-pentamethyl-8-thiatetracyclo[8.8.0.0^2,7.0^11,16]octadeca-2,4,6-triene-8,8-dione], for which the “Scoring: percent (%) activation” value is recorded as “+++ (≧65%)”.
In the case of `COc1cc(OC)c2c(c1)S(=O)(=O)C[C@@H]1[C@@]3(C)CCCC(C)(C)[C@@H]3CC[C@@]21C` [Compound No. 23, (1R,10R,11S,16S)-3,5-dimethoxy-1,11,15,15-tetramethyl-8-thiatetracyclo[8.8.0.0^2,7.0^11,16]octadeca-2,4,6-triene-8,8-dione], the “Scoring: percent (%) activation” value was “+++ (≧65%)”.
Consider `COc1cc(O)cc2c1[C@]1(C)CC[C@H]3C(C)(C)CCC[C@]3(C)[C@H]1CS2` [Compound No. 25, (1R,10R,11S,16S)-3-methoxy-1,11,15,15-tetramethyl-8-thiatetracyclo[8.8.0.0^2,7.0^11,16]octadeca-2,4,6-trien-5-ol], for which the “Scoring: percent (%) activation” value is “++ (≧50% but <65%)”.
To `CC1(C)CCC[C@]2(C)[C@H]3CSc4cc(O)cc(O)c4[C@]3(C)CC[C@@H]12` [Compound No. 26, (1R,10R,11S,16S)-1,11,15,15-tetramethyl-8-thiatetracyclo[8.8.0.0^2,7.0^11,16]octadeca-2,4,6-triene-3,5-diol] belongs “+ (<50%)”; to `CC1(C)CCC[C@]2(C)[C@H]3C[S+]([O-])c4cc(O)cc(O)c4[C@]3(C)CC[C@@H]12` (stereo partly drawn) [Compound No. 27, (1R,10R,11S,16S)-3,5-dihydroxy-1,11,15,15-tetramethyl-8-thiatetracyclo[8.8.0.0^2,7.0^11,16]octadeca-2,4,6-trien-8-one], “++ (≧50% but <65%)”; to `COc1cc(O)c2c(c1)SC[C@@H]1[C@@]3(C)CCCC(C)(C)[C@@H]3CC[C@@]21C` [Compound No. 29, (1R,10R,11S,16S)-5-methoxy-1,11,15,15-tetramethyl-8-thiatetracyclo[8.8.0.0^2,7.0^11,16]octadeca-2,4,6-trien-3-ol], “++ (≧50% but <65%)”.
The same measure for `COc1cc(O)c2c(c1)OC[C@@H]1[C@@]3(C)CCCC(C)(C)[C@@H]3CC[C@@]21C` [Compound No. 39, (1R,10R,11S,16S)-5-methoxy-1,11,15,15-tetramethyl-8-oxatetracyclo[8.8.0.0^2,7.0^11,16]octadeca-2,4,6-trien-3-ol]: “++ (≧50% but <65%)”.
For `COc1cc(O)c2c(c1)[C@]1(C)CC[C@H]3C(C)(C)CCC[C@]3(C)[C@H]1CO2` [Compound No. 44, (1R,10R,11S,16S)-4-methoxy-1,11,15,15-tetramethyl-8-oxatetracyclo[8.8.0.0^2,7.0^11,16]octadeca-2,4,6-trien-6-ol], the “Scoring: percent (%) activation” value is “++ (≧50% but <65%)”.
`CC1(C)CCC[C@]2(C)[C@H]3CS(=O)(=O)c4cc(O)cc(C(=O)O)c4[C@]3(C)CC[C@@H]12` [compound 65, (1R,10R,11S,16S)-5-hydroxy-1,11,15,15-tetramethyl-8,8-dioxo-8λ^6-thiatetracyclo[8.8.0.0^2,7.0^11,16]octadeca-2,4,6-triene-3-carboxylic acid]: the “Scoring: percent (%) activation” value is “++ (≧50% but <65%)”.
As to `CNC(=O)c1cc(O)cc2c1[C@]1(C)CC[C@H]3C(C)(C)CCC[C@]3(C)[C@H]1CS2(=O)=O` [compound 66, (1R,10R,11S,16S)-5-hydroxy-N,1,11,15,15-pentamethyl-8,8-dioxo-8λ^6-thiatetracyclo[8.8.0.0^2,7.0^11,16]octadeca-2,4,6-triene-3-carboxamide], the “Scoring: percent (%) activation” value is recorded as “+ (<50%)”.
The same measure for `CNC(=O)c1cc2c(cc1O)S(=O)(=O)C[C@@H]1[C@@]3(C)CCCC(C)(C)[C@@H]3CC[C@@]21C` [compound 73, (1R,10R,11S,16S)-5-hydroxy-N,1,11,15,15-pentamethyl-8,8-dioxo-8λ^6-thiatetracyclo[8.8.0.0^2,7.0^11,16]octadeca-2,4,6-triene-4-carboxamide]: “+ (<50%)”; for `CNC(=O)c1cc(O)cc2c1[C@]1(C)CC[C@H]3C(C)(C)CCC[C@]3(C)[C@H]1CS2` [compound 76, (1R,10R,11S,16S)-5-hydroxy-N,1,11,15,15-pentamethyl-8-thiatetracyclo-[8.8.0.0^2,7.0^11,16]octadeca-2,4,6-triene-3-carboxamide]: “+ (<50%)”.
The same measure for `CC1(C)CCC[C@]2(C)[C@H]3CS(=O)(=O)c4cc(O)cc(C#N)c4[C@]3(C)CC[C@@H]12` [compound 79, (1R,10R,11S,16S)-5-hydroxy-1,11,15,15-tetramethyl-8,8-dioxo-8λ^6-thiatetracyclo[8.8.0.0^2,7.0^11,16]octadeca-2,4,6-triene-3-carbonitrile]: “+ (<50%)”; for `COc1cc(C(=O)O)cc2c1[C@]1(C)CC[C@H]3C(C)(C)CCC[C@]3(C)[C@H]1CS2(=O)=O` [compound 80, (1R,10R,11S,16S)-3-methoxy-1,11,15,15-tetramethyl-8,8-dioxo-8λ^6-thiatetracyclo[8.8.0.0^2,7.0^11,16]octadeca-2,4,6-triene-5-carboxylic acid]: “+ (<50%)”; for `COC(=O)c1cc(C(=O)O)cc2c1[C@]1(C)CC[C@H]3C(C)(C)CCC[C@]3(C)[C@H]1CS2(=O)=O` [compound 84, (1R,10R,11S,16S)-3-(methoxycarbonyl)-1,11,15,15-tetramethyl-8,8-dioxo-8λ^6-thiatetracyclo[8.8.0.0^2,7.0^11,16]octadeca-2,4,6-triene-5-carboxylic acid]: “+ (<50%)”.
